Broadly, the IC50 is the point on the concentration scale where inhibition reaches its midpoint. A higher IC50 goes with lower potency.

The text below walks through data of US5023273A, “6-oxoprostaglandin E derivatives, process for their production and their pharmaceutical use” (Schering Aktiengesellschaft, priority 1987, dated 1991).

Assay [1] deals with Thrombocyte. As to the kind of experiment: Thrombocyte aggregation inhibition. The class given is cell-based. As to the method:
(§1) The pharmacological comparison tests, which were conducted with the compounds from examples 1 and 4 in comparison with 6-oxo-PGE1, are summarized in the following table.

Assay [2] deals with Stomach (rats, trauma with ethanol). The experiment in a line: Cytoprotection, stomach (rats, trauma with ethanol). Format: in vivo. The conditions noted are these: 10 micrograms/kg. As to the method: as §1
Assay [3] has as its system Thrombocyte. As to the kind of experiment: Thrombocyte shape change. Format: cell-based. The protocol: as §1

`CCCCC[C@H](O)/C=C/[C@H]1[C@H](O)CC(=O)[C@@H]1CC(=O)CCCCC(=O)O` [Example 6oxoPGE1, reference compound] returned a concentration for half-maximal inhibition (IC50) in the assay with Thrombocyte [1] of 7 nM. Besides, in assay [2], the “Cytoprotection, stomach: inhibition” value was 52%.

As for `CC#CCC(C)[C@H](O)/C=C/[C@H]1[C@H](O)CC(=O)[C@@H]1CC(=O)CCCCC(=O)O` (mixture of isomers) [Example 1, (13E)-(11R,15S,16RS)-6,9-Di-oxo-11,15-dihydroxy-16-methyl-18,18,19,19-tetradehydro-13-prostenoic acid], the half-inhibitory concentration (IC50) in the assay on Thrombocyte [1] is 1.7 nM; in the assay on Thrombocyte [3], 10 nM.

Consider `CCC#CC[C@H](C)[C@H](O)C#C[C@H]1[C@H](O)CC(=O)[C@@H]1CC(=O)CCCCC(=O)O` [Example 4, (11R,15S,16S)-6,9-di-oxo-11,15-dihydroxy-16,20-dimethyl-13,14,18,18,19,19-hexadehydroxy-13-prostenoic acid], for which the IC50 turned out to be 0.09 nM with Thrombocyte [1] and 1 nM in the assay with Thrombocyte [3].
